Test results as given in publication PMC4187030, “Effect of cyclodextrin complexation on phenylpropanoids’ solubility and antioxidant activity” (Beilstein Journal of Organic Chemistry, 2014).
Values after ≈ are worked out from the molar mass of the structure shown. Read-outs that look alike come from different tables or passages of the source. Values belong to the compound of their own block, whether it stands above or below them.

Assays:
[1] = Formation constants (Kf) by UV–visible spectral displacement method, β-CD; assay type: physicochemical; details: UV–visible spectral displacement with MO (MO itself by direct titration), SD <10%
Experimental: (§1) Formation constant (Kf) values were calculated using a UV–visible spectral displacement method. This method implies first the characterization of the inclusion complexes between CDs and the competitor (methyl orange, MO). The results are summarized in Table 1 in comparison with values from the literature.
(§2) The UV–visible competition method with methyl orange (MO) as competitor was carried out according to the method described by Landy et al.. In order to calculate CD/PP Kf values, CD/MO inclusion complexes were firstly characterized by a direct titration method. Then, a spectral displacement method was applied by adding PP to a solution containing constant concentration of MO and CD. The addition of PP implied an absorbance increment leading to the calculation of CD/PP Kf values. Spectra were recorded between 520–530 nm for a MO concentration fixed at 0.1 mM. This wavelength range corresponds to the optimal spectral variation between the absorbance of free and complexed forms of MO. All Kf values were calculated by an algorithmic treatment applied to the first derivatives of UV spectra in order to avoid any spectral influence of diffraction phenomena. Absorption studies were performed using a UV–visible dual-beam spectrophotometer (Perkin Elmer Lambda 2S) with a 1 cm thick quartz cuvette.

[2] = Formation constants (Kf) by UV–visible spectral displacement method, α-CD; assay type: physicochemical; details: UV–visible spectral displacement with MO (MO itself by direct titration), SD <10%
Experimental: as §1, §2

[3] = β-CD, cited from earlier work
[4] = Formation constants (Kf) by UV–visible spectral displacement method, CRYSMEB; assay type: physicochemical; details: UV–visible spectral displacement with MO (MO itself by direct titration), SD <10%
Experimental: as §1, §2

[5] = DPPH radical scavenging activity; details: for Change of DPPH radical scavenging activity upon complexation with CDs: PP in 10 mM CD solution vs water; for Kinetic behavior of reaction with DPPH•: PP with ethanolic DPPH• solution; for DPPH radical scavenging (antioxidant) activity of PP alone: absence of CD, 1 h (3, 4, 6, 7) or 15 h (1, 2, 5), 25 °C
Experimental: The 2,2-diphenyl-1-picrylhydrazyl (DPPH) radical scavenging activity of PP and their inclusion complexes was measured using the method described by Brand-Williams, Cuvelier, and Berset (1995) with some modifications. 1 mg of PP was dissolved in 50 mL of water, or 10 mM CD solution. 2 mL aliquot of the solution was vigorously mixed with 2 mL of ethanolic DPPH^• solution (0.1 mM). […]. Blank sample was prepared by mixing 2 mL of distilled water with 2 mL of DPPH^• solution. The scavenging activity was calculated using the following equation: […]
where As and A0 are the absorbance of sample and blank sample, respectively.

[6] = α-CD, cited from earlier work
[7] = Formation constants (Kf) by UV–visible spectral displacement method, RAMEB; assay type: physicochemical; details: UV–visible spectral displacement with MO (MO itself by direct titration), SD <10%
Experimental: as §1, §2

[8] = parameters: method as in earlier work; details: cited from earlier work
[9] = HP-β-CD, cited from earlier work
[10] = Formation constants (Kf) by UV–visible spectral displacement method, HP-β-CD; assay type: physicochemical; details: UV–visible spectral displacement with MO (MO itself by direct titration), SD <10%
Experimental: as §1, §2

[11] = Phase solubility studies, CRYSMEB
Experimental: (§3) Phase solubility studies were carried out according to the method described by Higuchi and Connors. Excess amount of PP was added to 1 mL of CD solution at different concentrations ranging from 0 to 10 mM. The mixtures were shaken at 25 °C for 24 h then filtered through a 0.45 μm membrane filter. The concentration of PP in the filtrate was determined spectrophotometrically at the maximum wavelength corresponding to each PP. Phase solubility diagrams were obtained by plotting the solubility of PP as a function of CD concentration. Kf value of CD/PP inclusion complex was calculated from the linear segment of the phase–solubility diagrams using the following equation: […]
(§4) where S0 is the intrinsic solubility of PP in the absence of CD and the Slope is the slope of the phase–solubility profile. The solubilizing potential of CD was evaluated by the complexation efficiency (CE) parameter. CE equal the complex to free CD concentration ratio and was calculated from the slope of the phase solubility diagram: […]
(§5) where [CD/PP] is the concentration of dissolved inclusion complex and [CD] is the concentration of dissolved free CD. The CE can be used to calculate the PP:CD ratio as follows:
(§6) The correlation between the CE and the molecular weight of CD or guest allowed the determination of the increase in formulation bulk which can be calculated using the following equation: […]
(§7) where MWCD and MWPP are the molecular weight values of CD and PP, respectively.

[12] = Phase solubility studies, HP-β-CD
Experimental: as §3, §4, §5, §6, §7

[13] = Phase solubility studies, β-CD
Experimental: as §3, §4, §5, §6, §7

[14] = Phase solubility studies, RAMEB
Experimental: as §3, §4, §5, §6, §7

[15] = Experimental: as §3, §4, §5, §6, §7
[16] = Intrinsic solubility (S0) of PP in water; assay type: physicochemical; details: thermodynamic from solid, absence of CD, 25 °C
Experimental: as §3, §4

[17] = RAMEB, cited from earlier work
[18] = CRYSMEB, cited from earlier work

Compound: COc1cc(/C=C/C(=O)O)ccc1O [Ferulic acid (7), ferulic acid]
- Formation constant (Kf) [1]: 246 M⁻¹
- Formation constant (Kf) [2]: 1769 M⁻¹
- Formation constant (Kf) ([3]; ref 30): 205 M⁻¹
- Formation constant (Kf) [4]: 474 M⁻¹
- Change of DPPH radical scavenging activity upon complexation with CDs [5]: kept unchanged
- Kinetic behavior of reaction with DPPH• [5]: reacted rapidly
- DPPH radical scavenging (antioxidant) activity of PP alone [5]: higher antioxidant activity
- Formation constant (Kf) ([6]; ref 29): 1162 M⁻¹
- Formation constant (Kf) [7]: 908 M⁻¹
- log P [8]: 1.249
- Formation constant (Kf) ([9]; ref 30): 590 M⁻¹
- Formation constant (Kf) [10]: 451 M⁻¹

Compound: C=CCc1ccc(OC)cc1 [Estragole (2), estragole]
- Formation constant (Kf) [1]: 987 M⁻¹
- Formation constant (Kf) [2]: 335 M⁻¹
- Increase in formulation bulk [11]: 25
- Kf [11]: 1512 M⁻¹
- Formation constant (Kf) [4]: 1584 M⁻¹
- Change of DPPH radical scavenging activity upon complexation with CDs [5]: increase in activity
- Kinetic behavior of reaction with DPPH• [5]: slow kinetic behavior
- DPPH radical scavenging (antioxidant) activity of PP alone [5]: reacted little
- Formation constant (Kf) [7]: 1916 M⁻¹
- log P [8]: 2.818
- Increase in formulation bulk [12]: 32
- Kf [12]: 1412 M⁻¹
- Increase in formulation bulk [13]: 35
- Kf [13]: 882 M⁻¹
- Increase in formulation bulk [14]: 26
- Kf [14]: 1694 M⁻¹
- Increase in formulation bulk [15]: 36
- Kf [15]: 682 M⁻¹
- Formation constant (Kf) [10]: 1508 M⁻¹

Compound: O=C(O)/C=C/c1ccc(O)c(O)c1 [Caffeic acid (6), caffeic acid]
- solubility at 24 h [16]: 300 µg/mL (≈ 1670 µM)
- Formation constant (Kf) [1]: 318 M⁻¹
- Formation constant (Kf) [2]: 1540 M⁻¹
- Increase in formulation bulk ([11]; CRYSMEB, from CE and molecular weights): 14
- Kf ([11]; CRYSMEB, from slope of phase solubility diagram and S0, 25 °C): 552 M⁻¹
- Formation constant (Kf) ([3]; ref 26): 278 M⁻¹
- Formation constant (Kf) ([3]; ref 27): 516 M⁻¹
- Formation constant (Kf) [4]: 404 M⁻¹
- Change of DPPH radical scavenging activity upon complexation with CDs [5]: kept unchanged
- Kinetic behavior of reaction with DPPH• [5]: reacted rapidly
- DPPH radical scavenging (antioxidant) activity of PP alone [5]: higher antioxidant activity
- Formation constant (Kf) [7]: 991 M⁻¹
- Increase in formulation bulk ([12]; HP-β-CD, from CE and molecular weights): 18
- Kf ([12]; HP-β-CD, from slope of phase solubility diagram and S0, 25 °C): 534 M⁻¹
- Formation constant (Kf) ([9]; ref 28): 279 M⁻¹
- Kf [13]: 425 M⁻¹
- Increase in formulation bulk ([13]; β-CD, from CE and molecular weights): 15
- Increase in formulation bulk ([14]; RAMEB, from CE and molecular weights): 13
- Kf ([14]; RAMEB, from slope of phase solubility diagram and S0, 25 °C): 825 M⁻¹
- Increase in formulation bulk [15]: 7
- Kf [15]: 1819 M⁻¹
- Formation constant (Kf) [10]: 526 M⁻¹

Compound: CN(C)c1ccc(N=Nc2ccc(S(=O)(=O)[O-])cc2)cc1.[Na+] [MO, methyl orange, reference compound]
- Formation constant (Kf) [1]: 2386 M⁻¹
- Formation constant (Kf) [2]: 7810 M⁻¹
- Formation constant (Kf) [4]: 3594 M⁻¹
- Formation constant (Kf) [7]: 15400 M⁻¹
- Formation constant (Kf) [10]: 5597 M⁻¹

Compound: isoeugenol [Isoeugenol (3)]
- Change of DPPH radical scavenging activity upon complexation with CDs [5]: kept unchanged
- Kinetic behavior of reaction with DPPH• [5]: reacted rapidly
- DPPH radical scavenging (antioxidant) activity of PP alone [5]: higher antioxidant activity

Compound: C/C=C/c1ccc(OC)cc1 [trans-Anethole (1), trans-anethole]
- Formation constant (Kf) ([17]; ref 11): 1553 M⁻¹
- Formation constant (Kf) ([17]; ref 23): 1110 M⁻¹
- Formation constant (Kf) [1]: 542 M⁻¹
- Formation constant (Kf) [2]: 927 M⁻¹
- Formation constant (Kf) ([3]; ref 11): 630 M⁻¹
- Formation constant (Kf) ([3]; ref 23): 497 M⁻¹
- Formation constant (Kf) [4]: 1039 M⁻¹
- Change of DPPH radical scavenging activity upon complexation with CDs [5]: increase in activity
- Kinetic behavior of reaction with DPPH• [5]: slow kinetic behavior
- DPPH radical scavenging (antioxidant) activity of PP alone [5]: reacted little
- Formation constant (Kf) ([6]; ref 11): 1163 M⁻¹
- Formation constant (Kf) ([6]; ref 23): 710 M⁻¹
- Formation constant (Kf) [7]: 1815 M⁻¹
- log P [8]: 3.096
- Formation constant (Kf) ([9]; ref 11): 1042 M⁻¹
- Formation constant (Kf) ([9]; ref 23): 981 M⁻¹
- Formation constant (Kf) ([18]; ref 11): 740 M⁻¹
- Formation constant (Kf) ([18]; ref 23): 877 M⁻¹
- Formation constant (Kf) [10]: 845 M⁻¹

- CE mean value [14]: 1.70
Compound: randomly methylated β-cyclodextrin [RAMEB]

- CE mean value [13]: 0.91
Compound: OC[C@H]1O[C@@H]2O[C@H]3[C@H](O)[C@@H](O)[C@@H](O[C@H]4[C@H](O)[C@@H](O)[C@@H](O[C@H]5[C@H](O)[C@@H](O)[C@@H](O[C@H]6[C@H](O)[C@@H](O)[C@@H](O[C@H]7[C@H](O)[C@@H](O)[C@@H](O[C@H]8[C@H](O)[C@@H](O)[C@@H](O[C@H]1[C@H](O)[C@H]2O)O[C@@H]8CO)O[C@@H]7CO)O[C@@H]6CO)O[C@@H]5CO)O[C@@H]4CO)O[C@@H]3CO [β-CD, β-cyclodextrin]

- CE mean value [11]: 1.21
Compound: low methylated β-cyclodextrin [CRYSMEB]

- CE mean value ([12]; HP-β-CD, mean over the studied PPs): 1.42
Compound: CC(O)COC[C@H]1O[C@@H]2O[C@H]3[C@H](O)[C@@H](O)[C@@H](O[C@H]4[C@H](O)[C@@H](O)[C@@H](O[C@H]5[C@H](O)[C@@H](O)[C@@H](O[C@H]6[C@H](O)[C@@H](O)[C@@H](O[C@H]7[C@H](O)[C@@H](O)[C@@H](O[C@H]8[C@H](O)[C@@H](O)[C@@H](O[C@H]1[C@H](O)[C@H]2O)O[C@@H]8COCC(C)O)O[C@@H]7COCC(C)O)O[C@@H]6COCC(C)O)O[C@@H]5COCC(C)O)O[C@@H]4COCC(C)O)O[C@@H]3COCC(C)O (stereo partly drawn) [HP-β-CD, hydroxypropyl-β-cyclodextrin]
